Results reported in US9856259B2, “Heterocyclic compounds and uses thereof” (Plexxikon Inc., priority 2014, dated 2018).

Legend:
[1] = test system: cancer cells such leukemia and lymphoma, multiple myeloma cells, NUT midline carcinoma and glioblastoma cells; settings: literature; cited from earlier work
[2] = test system: MYC promoter / c-myc transcription in MV-4-11 cells; settings: literature (Dawson M A et al. 2011); cited from earlier work
BRD4-BD12 = molecular target: T1, BRD4-BD12 (Homo sapiens, UniProt O60885); test: Alphascreen binding assay, BRD4(1 2) H4; settings: BRD4 dual bromodomains with acetylated Histone 4 peptide, read-out: Biochemical activity (IC50 μM) BRD4(1 2) H4
T1 construct: dual bromodomains (BRD4-BD12 (1-477), BRD4-BD12 (1-472)); six-His tag (N); made in house; host or cells: E. coli BL21-CodonPlus (DE3)
Procedure, shortened: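 N-His-tagged human BRD4 tandem bromodomains (1-477 or 1-472, E. coli-expressed) and biotinylated tetra-acetylated histone H4 1-21 peptide, preincubated 1 h at room temperature with compound in HEPES pH 7.5/NaCl/BSA/Triton/DTT. AlphaScreen nickel-chelate/streptavidin beads added (7.5 μg/mL), read after 30 min. pIC50 from four-parameter fit of control-normalized data.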

MV-4-11 = test: Oncology cell growth assay, MV-4-11 3 d growth; type: cell-based; settings: Homo sapiens, MV4-11; MV-4-11 cells, 72 hours, CellTiter Glo; read-out: Cell activity (IC50 μM) MV-4-11 3 d-Growtb
Procedure, shortened: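 MV-4-11 AML cells (MLL-AF4) seeded 3000/well, then exposed to 8-point 1:3 compound dilutions up to 10 μM final, 0.2% DMSO, for 72 h. Growth read by CellTiter Glo luminescence, normalised to DMSO controls; pIC50 from four-parameter fit.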

[3] = test system: cancer cell lines / MV-4-11 Myc reporter cell line; test: Bromodomain cell assays of Example 8 (at least one of them); type: cell-based; settings: Homo sapiens, MV4-11; at least one of the bromodomain cell assays described in Example 8
Procedure, shortened: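 Antiproliferation: 3000 cells/well, 8-point 1:3 titration from 10 µM final, 0.2% DMSO, 72 h, CellTiter Glo luminescence. Myc reporter: MV-4-11 with E-box firefly luciferase, 25,000 cells, same titration, 24 h; One-Glo luminescence with CellTiter-Fluo viability; 10 µM JQ1 as low control. pIC50 from four-parameter fit.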

Compound	activity in variety of cancer cells [1]	BRD4 recruitment to the MYC promoter [2]	c-myc transcription [2]	IC50 (BRD4-BD12) [µM]	IC50 (MV-4-11) [µM]	IC50 [3] [nM]
Cc1sc2c(c1C)C(c1ccc(Cl)cc1)=N[C@@H](CC(=O)OC(C)(C)C)c1nnc(C)n1-2 [JQ1]	have shown activity					
COc1cc2c(cc1-c1c(C)noc1C)ncc1[nH]c(=O)n([C@H](C)c3ccccn3)c12 [iBET 151]	have shown activity	disrupt	downregulate			
Cc1noc(C)c1-c1cnc2c(-c3cnn(CC(F)(F)F)c3)nn(CC3CCC(F)(F)CC3)c2c1 [Compound P-2083, 4-[1-[(4,4-difluorocyclohexyl)methyl]-3-[1-(2,2,2-trifluoroethyl)pyrazol-4-yl]pyrazolo[4,3-b]pyridin-6-yl]-3,5-dimethyl-isoxazole]				≤ 1	≤ 1	< 10000
COC(=O)Cc1ccc(-c2cn([C@@H](C)c3ccccn3)c3nc(-c4c(C)noc4C)cnc23)cc1 [Compound P-2051, methyl 2-[4-[3-(3,5-dimethylisoxazol-4-yl)-5-[(1S)-1-(2-pyridyl)ethyl]pyrrolo[2,3-b]pyrazin-7-yl]phenyl]acetate]				≤ 1	≤ 1	< 10000
COC(=O)c1ccc(-c2cn(C(c3ccccc3)c3ccccn3)c3nc(-c4c(C)noc4C)cnc23)cc1 (stereo not shown) [Compound P-2045, methyl 4-[3-(3,5-dimethylisoxazol-4-yl)-5-[phenyl(2-pyridyl)methyl]pyrrolo[2,3-b]pyrazin-7-yl]benzoate]				≤ 1	≤ 1	< 10000
